Consider 17 molecules from ChEMBL document CHEMBL3045943, “Novel N-aryl(alkaryl)-2-[(3-R-2-oxo-2H-[1,2,4]triazino[2,3-c]quinazoline-6-yl)thio]acetamides: synthesis, cytotoxicity, anticancer activity, COMPARE analysis and docking” (2013).

Common to all, as to type: functional
One experiment has as its system NCI-H522. Description: Cytotoxicity against Homo sapiens (human) NCI-H522 cells assessed as cell growth at 10 uM after 48 hr by SRB assay relative to control. The settings on record: NCI-H522, 48 h, read-out: Activity. (In general: Sulforhodamine B stains cellular protein and so reports cell mass.)
Experiment [1] has as its system Photobacterium leiognathi. Description: Growth inhibition of Photobacterium leiognathi Sh1 assessed as bio-luminescence at 0.025 mg/ml after 10 min by acute action test relative to control. Details: scale not given: the % may be the effect or the level left.
Experiment [2] deals with Photobacterium leiognathi. Description: Growth inhibition of Photobacterium leiognathi Sh1 assessed as bio-luminescence at 0.1 mg/ml after 16 to 18 hr by chronic action test relative to control. Details: scale not given: the % may be the effect or the level left.
Experiment [3] concerns Photobacterium leiognathi. Description: Growth inhibition of Photobacterium leiognathi Sh1 assessed as bio-luminescence at 0.1 mg/ml after 10 min by acute action test relative to control. Details: scale not given: the % may be the effect or the level left.
Experiment [4] deals with Photobacterium leiognathi. Description: Growth inhibition of Photobacterium leiognathi Sh1 assessed as bio-luminescence at 0.25 mg/ml after 10 min by acute action test relative to control. Set-up: scale not given: the % may be the effect or the level left.
For experiment [5], the system named is Photobacterium leiognathi. Description: Growth inhibition of Photobacterium leiognathi Sh1 assessed as bio-luminescence at 0.025 mg/ml after 16 to 18 hr by chronic action test relative to control. Details: scale not given: the % may be the effect or the level left.
The next experiment relates to MOLT-4. Description: Cytotoxicity against Homo sapiens (human) MOLT4 cells assessed as cell growth at 10 uM after 48 hr by SRB assay relative to control. The settings on record: MOLT-4, 48 h, read-out: Activity.
The subject of experiment [6] is Photobacterium leiognathi. Description: Growth inhibition of Photobacterium leiognathi Sh1 assessed as bio-luminescence at 0.25 mg/ml after 16 to 18 hr by chronic action test relative to control. Set-up: scale not given: the % may be the effect or the level left.
A further experiment has as its system UO-31. Description: Cytotoxicity against Homo sapiens (human) UO31 cells assessed as cell growth at 10 uM after 48 hr by SRB assay relative to control. The settings on record: UO-31, 48 h, read-out: Activity.
In the next experiment the test system is K562. Description: Cytotoxicity against Homo sapiens (human) K562 cells assessed as cell growth at 10 uM after 48 hr by SRB assay relative to control. The settings on record: K562, 48 h, read-out: Activity.
Another experiment has as its system MDA-MB-435. Description: Cytotoxicity against Homo sapiens (human) MDA-MB-435 cells assessed as cell growth at 10 uM after 48 hr by SRB assay relative to control. The settings on record: MDA-MB-435, 48 h, read-out: Activity.
The test system of the next experiment is SF-539. Description: Cytotoxicity against Homo sapiens (human) SF539 cells assessed as cell growth at 10 uM after 48 hr by SRB assay relative to control. The settings on record: SF-539, 48 h, read-out: Activity.
For another experiment, the system named is HOP-92. Description: Cytotoxicity against Homo sapiens (human) HOP92 cells assessed as cell growth at 10 uM after 48 hr by SRB assay relative to control. The settings on record: HOP-92, 48 h, read-out: Activity.
The test system of the next experiment is HCT-116. Description: Cytotoxicity against Homo sapiens (human) HCT116 cells assessed as cell growth at 10 uM after 48 hr by SRB assay relative to control. The settings on record: HCT-116, 48 h, read-out: Activity.
The subject of the next experiment is SR. Description: Cytotoxicity against Homo sapiens (human) SR cells assessed as cell growth at 10 uM after 48 hr by SRB assay relative to control. Conditions: read-out: Activity.
In a further experiment the test system is OVCAR-3. Description: Cytotoxicity against Homo sapiens (human) OVCAR3 cells assessed as cell growth at 10 uM after 48 hr by SRB assay relative to control. Conditions: OVCAR-3, 48 h, read-out: Activity.
A further experiment concerns LOX IMVI. Description: Cytotoxicity against Homo sapiens (human) LOXIMVI cells assessed as cell growth at 10 uM after 48 hr by SRB assay relative to control. Conditions: read-out: Activity.
A short description of experiment [7]: Cytotoxicity against Homo sapiens (human) […] cells assessed as cell growth at 10 uM after 48 hr by SRB assay relative to control. Conditions: read-out: Activity.
The subject of the next experiment is HL-60(TB). Description: Cytotoxicity against Homo sapiens (human) HL-60(TB) cells assessed as cell growth at 10 uM after 48 hr by SRB assay relative to control. The settings on record: HL-60, 48 h, read-out: Activity.
The next experiment has as its system CCRF-CEM. Description: Cytotoxicity against Homo sapiens (human) CCRF-CEM cells assessed as cell growth at 10 uM after 48 hr by SRB assay relative to control. Conditions: read-out: Activity.
A further experiment concerns U-251. Description: Cytotoxicity against Homo sapiens (human) U251 cells assessed as cell growth at 10 uM after 48 hr by SRB assay relative to control. Conditions: U-251, 48 h, read-out: Activity.
The next experiment relates to SNB-75. Description: Cytotoxicity against Homo sapiens (human) SNB75 cells assessed as cell growth at 10 uM after 48 hr by SRB assay relative to control. Conditions: SNB-75, 48 h, read-out: Activity.

In the case of `Cc1ccc(-c2nn3c(SCC(=O)Nc4ccccc4C(=O)O)nc4ccccc4c3nc2=O)cc1`, in the experiment on NCI-H522, the growth at 10 µM was found to be 78.2%.

As for `COc1ccc(CNC(=O)CSc2nc3ccccc3c3nc(=O)c(-c4ccccc4)nn23)cc1`, the Activity in experiment [1] is on record as 111.5%; in experiment [2], 44.4%; in experiment [3] it was 106.2%; in experiment [4], 138.7%; in experiment [5], 50%; in [6] it was 40%. The growth at 10 µM in the experiment on MOLT-4 was 78.7%.

`Cc1nn2c(SCC(=O)NCc3cccc(C(F)(F)F)c3)nc3ccccc3c2nc1=O`: the Activity came to 66.7% in experiment [1]; 92.3% in experiment [2]; 75% in experiment [3]; 100% in [4]; 123.6% in experiment [5]; 193.3% in experiment [6]. In addition, the growth at 10 µM in the experiment on UO-31 is 54.5%.

With `Cc1nn2c(SCC(=O)NCc3ccccc3F)nc3ccccc3c2nc1=O`, the Activity in experiment [1] amounted to 116.7%; in experiment [2] it was 233.3%; in experiment [3] it was 66.7%; in [4] it was 170%; in experiment [5] it was 130.2%; in experiment [6] it was 200%. In addition, the growth at 10 µM in the experiment on K562 stood at 77.8%.

Regarding `Cc1nn2c(SCC(=O)NCc3ccc(F)cc3)nc3ccccc3c2nc1=O`, the Activity in experiment [1] amounted to 77.8%; in experiment [2], 123.1%; in [3], 78.8%; in experiment [4], 91.7%; in experiment [5], 118.2%; in experiment [6], 200%. Moreover, the growth at 10 µM in the experiment with UO-31 was determined as 61.6%.

`Cc1nn2c(SCC(=O)NCc3ccccc3Cl)nc3ccccc3c2nc1=O`: the Activity amounted to 91.7% in experiment [1]; 180.9% in [2]; 110% in [3]; 142.9% in experiment [4]; 148.9% in experiment [5]; 125% in experiment [6]. The growth at 10 µM with MDA-MB-435 was 79.8%; with NCI-H522, 79.9%.

As for `O=C(CSc1nc2ccccc2c2nc(=O)c(-c3ccccc3)nn12)NCc1ccccc1Cl`, the growth at 10 µM turned out to be 9.93% with SF-539; 44.8% in the experiment with HOP-92; 7.01% in the experiment with HCT-116; 43.2% in the experiment on NCI-H522; 47.4% in the experiment with SR; 47.9% with OVCAR-3. In addition, in the experiment with LOX IMVI, the growth at 10 µM was 27.9%. In addition, the Activity worked out at 108.3% in [1]; 133.3% in experiment [2]; 80% in experiment [3]; 155% in [4]; 93% in experiment [5]; 110% in experiment [6].

As to `Cc1nn2c(SCC(=O)NCCc3ccccc3)nc3ccccc3c2nc1=O`, the Activity is 72.2% in [1]; 100% in experiment [2]; 87.5% in [3]; 100% in [4]; 136.4% in [5]; 133.3% in [6]. Also, the growth at 10 µM in the experiment on UO-31 turned out to be 77.3%.

For `O=C(CSc1nc2ccccc2c2nc(=O)c(-c3ccccc3)nn12)NCCc1ccccc1`, the Activity in experiment [1] was 109.5%; in [2], 400%; in experiment [3], 121.5%; in experiment [4], 119.4%; in experiment [5], 222.2%; in experiment [6], 57.1%. Also, in the experiment on LOX IMVI, the growth at 10 µM was found to be 61.1%.

Turning to `Cc1ccc(-c2nn3c(SCC(=O)Nc4cccc(C(F)(F)F)c4)nc4ccccc4c3nc2=O)cc1`, the growth at 10 µM in the experiment on SF-539 is 80.8%; in the experiment with HOP-92, 71%; in the experiment on SR it was 66.5%. The Activity in [1] stood at 61.1%; in experiment [2], 81.5%; in [3], 78.8%; in experiment [4] it was 83.3%; in [5], 118.2%; in experiment [6], 200%.

Take `Cc1ccc(-c2nn3c(SCC(=O)Nc4ccccc4F)nc4ccccc4c3nc2=O)cc1`: the Activity in experiment [1] was found to be 89.86%; in [2], 87.5%; in experiment [3] it was 86.96%; in [4], 47.83%; in experiment [5], 112.5%; in [6] it was 100%. The growth at 10 µM in [7] amounted to 94.4%; with HL-60(TB), 84.4%; in the experiment on MOLT-4, 82.3%; in the experiment with SR it was 73.7%; with K562, 77.5%; in the experiment with CCRF-CEM, 76.8%.

Turning to `Cc1nn2c(SCC(=O)Nc3cccc(Cl)c3)nc3ccccc3c2nc1=O`, the Activity in experiment [1] turned out to be 99.3%; in experiment [2], 250%; in experiment [3], 99.1%; in experiment [4] it was 104.5%; in experiment [5], 185.2%; in experiment [6] it was 42.9%. Moreover, the growth at 10 µM with K562 is 57.2%.

In the case of `O=C(CSc1nc2ccccc2c2nc(=O)c(-c3ccccc3)nn12)Nc1ccc(Cl)cc1`, the Activity in experiment [1] is listed as 100%; in experiment [2], 212.8%; in [3], 120%; in experiment [4], 142.9%; in experiment [5], 88.9%; in experiment [6], 87.5%. For the same molecule, in the experiment on MOLT-4, the growth at 10 µM was determined as 77.5%.

As for `Cc1nn2c(SCC(=O)NCc3ccccc3)nc3ccccc3c2nc1=O`, the Activity in [1] is 66.7%; in experiment [2] it was 115.4%; in [3], 87.5%; in experiment [4], 91.7%; in [5] it was 72.7%; in [6] it was 250%. In addition, the growth at 10 µM in the experiment with MOLT-4 stood at 78.5%.

As to `Cc1ccc(-c2nn3c(SCC(=O)Nc4ccccc4C)nc4ccccc4c3nc2=O)cc1`, the Activity came out at 119.7% in [1]; 66.7% in experiment [2]; 109.7% in [3]; 193.5% in [4]; 100% in [5]; 93.3% in experiment [6]. In addition, the growth at 10 µM in the experiment on U-251 is 63.5%; in the experiment with SNB-75, 46.7%; with CCRF-CEM, -49.6%.

Regarding `COc1ccc(NC(=O)CSc2nc3ccccc3c3nc(=O)c(-c4ccc(C)cc4)nn23)cc1`, the Activity in [1] is listed as 88.3%; in experiment [2] it was 117%; in [3] it was 106%; in experiment [4], 142.9%; in experiment [5], 95.6%; in experiment [6], 75%. Also, the growth at 10 µM was 61.1% in the experiment on U-251 and 57.9% in the experiment on NCI-H522.

With `COc1ccc(-c2nn3c(SCC(=O)Nc4ccccc4C(F)(F)F)nc4ccccc4c3nc2=O)cc1`, the Activity is on record as 97.8% in experiment [1]; 200% in experiment [2]; 106.5% in experiment [3]; 113.4% in experiment [4]; 185.2% in [5]; 102.9% in experiment [6]. Further, in experiment [7], the growth at 10 µM is 85.1%.
